Assay results reported in ChEMBL document CHEMBL5303573, “Mapping human microbiome drug metabolism by gut bacteria and their genes” (Nature, 2019).

Assays:
[1] = The drug is tested on Bacteroides dorei strain: DSM17855 for biotransformation. The drug concentrations were measured before and after a 12-h incubation by liquid-chromatography-coupled mass spectrometry (LC–MS); settings: phocaeicola dorei, 2 µM
[2] = The drug is tested on Bacteroides fragilis strain: ATCC43859 for biotransformation. The drug concentrations were measured before and after a 12-h incubation by liquid-chromatography-coupled mass spectrometry (LC–MS); settings: 2 µM
[3] = The drug is tested on Bacteroides ovatus strain: ATCC8483 for biotransformation. The drug concentrations were measured before and after a 12-h incubation by liquid-chromatography-coupled mass spectrometry (LC–MS); settings: 2 µM
[4] = The drug is tested on Bacteroides pectinophilus strain: ATCC43243 for biotransformation. The drug concentrations were measured before and after a 12-h incubation by liquid-chromatography-coupled mass spectrometry (LC–MS); settings: 2 µM
[5] = The drug is tested on Bacteroides xylanisolvens strain: DSM18836 for biotransformation. The drug concentrations were measured before and after a 12-h incubation by liquid-chromatography-coupled mass spectrometry (LC–MS); settings: 2 µM
[6] = The drug is tested on Parabacteroides merdae strain: ATCC43184 for biotransformation. The drug concentrations were measured before and after a 12-h incubation by liquid-chromatography-coupled mass spectrometry (LC–MS); settings: 2 µM
[7] = The drug is tested on Blautia hansenii strain: DSM20583 for biotransformation. The drug concentrations were measured before and after a 12-h incubation by liquid-chromatography-coupled mass spectrometry (LC–MS); settings: 2 µM
[8] = The drug is tested on Clostridium sporogenes strain: ATCC15579 for biotransformation. The drug concentrations were measured before and after a 12-h incubation by liquid-chromatography-coupled mass spectrometry (LC–MS); settings: 2 µM
[9] = The drug is tested on Clostridium symbiosum strain: ATCC14940 for biotransformation. The drug concentrations were measured before and after a 12-h incubation by liquid-chromatography-coupled mass spectrometry (LC–MS); settings: 2 µM
[10] = The drug is tested on Eubacterium hallii strain: DSM3353 for biotransformation. The drug concentrations were measured before and after a 12-h incubation by liquid-chromatography-coupled mass spectrometry (LC–MS); settings: anaerobutyricum hallii, 2 µM
[11] = The drug is tested on Ruminococcus lactaris strain: ATCC29176 for biotransformation. The drug concentrations were measured before and after a 12-h incubation by liquid-chromatography-coupled mass spectrometry (LC–MS); settings: 2 µM
[12] = The drug is tested on Ruminococcus torques strain: ATCC27756 for biotransformation. The drug concentrations were measured before and after a 12-h incubation by liquid-chromatography-coupled mass spectrometry (LC–MS); assay type: ADME; set-up: dose 2 uM, timepoint 0 vs 12 hours; settings: 2 µM
[13] = The drug is tested on Escherichia coli strain: BW25113 for biotransformation. The drug concentrations were measured before and after a 12-h incubation by liquid-chromatography-coupled mass spectrometry (LC–MS); settings: 2 µM
[14] = The drug is tested on Providencia rettgeri strain: DSM1131 for biotransformation. The drug concentrations were measured before and after a 12-h incubation by liquid-chromatography-coupled mass spectrometry (LC–MS); assay type: ADME; set-up: dose 2 uM, timepoint 0 vs 12 hours; settings: 2 µM
[15] = The drug is tested on Providencia stuartii strain: ATCC25827 for biotransformation. The drug concentrations were measured before and after a 12-h incubation by liquid-chromatography-coupled mass spectrometry (LC–MS); settings: 2 µM
[16] = parabacteroides distasonis, 12 h, 2 µM
Description: The drug is tested on Parabacteroides distasonis strain: ATCC8503 for biotransformation. The drug concentrations were measured before and after a 12-h incubation by liquid-chromatography-coupled mass spectrometry (LC–MS)

[17] = segatella copri, 12 h, 2 µM
Description: The drug is tested on Prevotella copri strain: DSM18205 for biotransformation. The drug concentrations were measured before and after a 12-h incubation by liquid-chromatography-coupled mass spectrometry (LC–MS)

[18] = akkermansia muciniphila, 12 h, 2 µM
Description: The drug is tested on Akkermansia muciniphila strain: ATCC BAA-835 for biotransformation. The drug concentrations were measured before and after a 12-h incubation by liquid-chromatography-coupled mass spectrometry (LC–MS)

[19] = bacteroides thetaiotaomicron, 12 h, 2 µM
Description: The drug is tested on Bacteroides thetaiotaomicron strain: VPI-5482 for biotransformation. The drug concentrations were measured before and after a 12-h incubation by liquid-chromatography-coupled mass spectrometry (LC–MS)

[20] = The drug is tested on Subdoligranulum variabile strain: DSM15176 for biotransformation. The drug concentrations were measured before and after a 12-h incubation by liquid-chromatography-coupled mass spectrometry (LC–MS); settings: 2 µM

| Structure (SMILES) | Bacterial Biotransformation [1] | Bacterial Biotransformation [2] | Bacterial Biotransformation [3] | Bacterial Biotransformation [4] | Bacterial Biotransformation [5] | Bacterial Biotransformation [6] | Bacterial Biotransformation [7] | Bacterial Biotransformation [8] | Bacterial Biotransformation [9] | Bacterial Biotransformation [10] | Bacterial Biotransformation [11] | Bacterial Biotransformation [12] | Bacterial Biotransformation [13] | Bacterial Biotransformation [14] | Bacterial Biotransformation [15] | Bacterial Biotransformation [16] | Bacterial Biotransformation [17] | Bacterial Biotransformation [18] | Bacterial Biotransformation [19] | Bacterial Biotransformation [20] |
| --- | --- | --- | --- | --- | --- | --- | --- | --- | --- | --- | --- | --- | --- | --- | --- | --- | --- | --- | --- | --- |
| Cc1cc(C)cc(OCC2CNC(=O)O2)c1 (stereo not given) [METAXALONE] | Compound metabolized | Compound metabolized | Compound metabolized | Compound metabolized | Compound metabolized |  | Compound metabolized | Compound NOT metabolized | Compound NOT metabolized | Compound NOT metabolized | Compound NOT metabolized |  |  |  | Compound NOT metabolized | Compound metabolized |  | Compound NOT metabolized |  |  |
| C[C@@H]1C[C@H]2[C@@H]3CCC4=CC(=O)C=C[C@]4(C)[C@@]3(F)[C@@H](O)C[C@]2(C)[C@@]1(O)C(=O)CO [DEXAMETHASONE] | Compound metabolized | Compound metabolized |  |  | Compound metabolized |  |  |  | Compound NOT metabolized | Compound NOT metabolized | Compound NOT metabolized | Compound NOT metabolized | Compound NOT metabolized | Compound NOT metabolized |  | Compound NOT metabolized | Compound NOT metabolized | Compound NOT metabolized | Compound metabolized |  |
| CC12CC3CC(C)(C1)CC(N)(C3)C2 [MEMANTINE] | Compound NOT metabolized |  | Compound NOT metabolized | Compound NOT metabolized |  | Compound NOT metabolized |  | Compound NOT metabolized | Compound NOT metabolized | Compound NOT metabolized |  | Compound NOT metabolized | Compound NOT metabolized |  | Compound NOT metabolized | Compound NOT metabolized |  | Compound NOT metabolized | Compound NOT metabolized | Compound NOT metabolized |
| C=C[C@H]1CN2CC[C@H]1C[C@H]2[C@H](O)c1ccnc2ccc(OC)cc12.C=C[C@H]1CN2CC[C@H]1C[C@H]2[C@H](O)c1ccnc2ccc(OC)cc12.O.O.O=S(=O)(O)O [QUININE SULFATE] |  |  | Compound NOT metabolized | Compound NOT metabolized | Compound NOT metabolized |  |  |  |  | Compound NOT metabolized |  | Compound NOT metabolized |  | Compound NOT metabolized | Compound NOT metabolized | Compound NOT metabolized | Compound NOT metabolized | Compound NOT metabolized |  |  |
| CC(C)(C)NC[C@H](O)COc1ccccc1C1CCCC1.CC(C)(C)NC[C@H](O)COc1ccccc1C1CCCC1.O=S(=O)(O)O [PENBUTOLOL SULFATE] |  |  | Compound NOT metabolized |  | Compound NOT metabolized | Compound NOT metabolized |  | Compound NOT metabolized | Compound NOT metabolized | Compound NOT metabolized | Compound NOT metabolized | Compound NOT metabolized | Compound NOT metabolized |  | Compound NOT metabolized | Compound NOT metabolized |  |  | Compound NOT metabolized | Compound NOT metabolized |
| COC(=O)[C@H]1[C@H]2C[C@@H]3c4[nH]c5cc(OC)ccc5c4CCN3C[C@H]2C[C@@H](OC(=O)c2cc(OC)c(OC)c(OC)c2)[C@@H]1OC [RESERPINE] | Compound NOT metabolized | Compound NOT metabolized | Compound NOT metabolized |  | Compound NOT metabolized | Compound NOT metabolized | Compound NOT metabolized | Compound NOT metabolized |  | Compound NOT metabolized | Compound NOT metabolized | Compound NOT metabolized | Compound NOT metabolized | Compound NOT metabolized | Compound NOT metabolized | Compound NOT metabolized | Compound NOT metabolized | Compound NOT metabolized | Compound NOT metabolized |  |

Further lines, with some results ahead:

| Bacterial Biotransformation [1] | Bacterial Biotransformation [2] | Bacterial Biotransformation [3] | Bacterial Biotransformation [4] | Bacterial Biotransformation [5] | Bacterial Biotransformation [6] | Bacterial Biotransformation [7] | Bacterial Biotransformation [8] | Bacterial Biotransformation [9] | Bacterial Biotransformation [10] | Bacterial Biotransformation [11] | Bacterial Biotransformation [12] | Bacterial Biotransformation [13] | Bacterial Biotransformation [14] | Bacterial Biotransformation [15] | Bacterial Biotransformation [16] | Bacterial Biotransformation [17] | Bacterial Biotransformation [18] | Bacterial Biotransformation [19] | Structure (SMILES) | Bacterial Biotransformation [20] |
| --- | --- | --- | --- | --- | --- | --- | --- | --- | --- | --- | --- | --- | --- | --- | --- | --- | --- | --- | --- | --- |
| Compound NOT metabolized | Compound metabolized | Compound NOT metabolized | Compound NOT metabolized | Compound metabolized | Compound NOT metabolized | Compound NOT metabolized | Compound NOT metabolized | Compound NOT metabolized | Compound NOT metabolized | Compound NOT metabolized | Compound NOT metabolized | Compound NOT metabolized | Compound NOT metabolized | Compound NOT metabolized | Compound metabolized | Compound NOT metabolized | Compound NOT metabolized |  | CCCCC(=O)N(Cc1ccc(-c2ccccc2-c2nnn[nH]2)cc1)[C@H](C(=O)O)C(C)C |  |
|  | Compound NOT metabolized | Compound NOT metabolized | Compound NOT metabolized | Compound NOT metabolized | Compound NOT metabolized |  | Compound NOT metabolized | Compound NOT metabolized | Compound NOT metabolized | Compound NOT metabolized | Compound NOT metabolized |  | Compound NOT metabolized | Compound NOT metabolized |  | Compound NOT metabolized | Compound NOT metabolized | Compound NOT metabolized | CC(C)(C)NCC(O)COc1cccc2c1CC(O)C(O)C2 (stereo not given) [NADOLOL] |  |
| Compound NOT metabolized | Compound NOT metabolized | Compound NOT metabolized | Compound NOT metabolized | Compound NOT metabolized | Compound NOT metabolized | Compound NOT metabolized | Compound NOT metabolized | Compound NOT metabolized | Compound NOT metabolized | Compound NOT metabolized | Compound NOT metabolized |  | Compound NOT metabolized | Compound NOT metabolized | Compound NOT metabolized | Compound NOT metabolized |  | Compound NOT metabolized | CCc1nc(N)nc(N)c1-c1ccc(Cl)cc1 [PYRIMETHAMINE] |  |
